Reference: patent US4542141A, “Compound having vasodilating, antiaggregating and hypocholesterolemic activities, process for the preparation thereof and pharmaceutical compositions therefrom” (Edmond Pharma s.r.l., priority 1982, dated 1985)

How the values were obtained:
[1] = test system: platelet aggregation induced by adrenaline; assay: "Ex vivo" platelet antiaggregating action; type: in vivo, rabbits; details: rabbit PRP, 35 mcg/ml adrenaline
Source text: By this test, the effect of VQG 582, acetylsalicylic acid or sulfinpyrazone pretreatment of rabbits on the platelet aggregation induced on the PRP of these animals by 35 mcg/ml adrenaline, has been valued.

[2] = Hypocholesterolemic action in rats fed with Nath's diet; type: in vivo; details: 200 mg/kg per os, 40 days
Method: 24 Hours after the last administration, the survived animals have been sacrificed and the dosage of total serum cholesterol, serum triglycerides, serum phospholipids and serum free fatty acids has been performed according to the methods described by Abell et al. (J. Biol. Chem., 195, 375, 1952), VAN HANDALL et al. (J. Lab. Clin. Med., 50, 152, 1957), MORRISON (Anal. Biochem., 7, 218, 1964), DOLE AND MEINERTZ (J. Biol. Chem., 235, 2595, 1960).
The livers were withdrawn and weighed, homogenized and extracted in soxhlet. The extracted lipids, evaporated, have been weighed and expresses as % of fresh organ.

[3] = test system: thrombocytopenia induced by Arthus reaction; assay: Inhibition of the thrombocytopenia induced by Arthus reaction in the guinea-pig; type: in vivo, guinea pigs; details: guinea pig after antigenic reaction, 100 mg/kg os; for % inhibition: thrombocytopenia
Source text: The method described by White and Butler (Thromb. Diath. Haemorr., 34, 533, 1975) has been used.

[4] = Acute toxicity in the rat (LD50, Probits method); details: in vivo
Method: (§1) The study has been performed using whitish Swiss mice weighing about 20 g and Wistar rats, in the phase of weight increase, weighing about 150 g, of both sexes. The product has been administered to fasted animals (2 hours for mice and 18 hours for rats) by gastric tube (oral route) or intraperitoneal injection. Sulfipyrazone has been used as reference drug.
(§2) For the statistic calculation of LD50 and of the respective confidence limits for p=0.05, the Probits method was followed (Finney D. J.--Probit analysis-Cambridge Univ. Press, London and New York, 1952), taking into account the death rates in the 8 days following the treatments.

[5] = rat, in vivo
[6] = Acute toxicity in the mouse (LD50, Probits method); details: in vivo
Method: as §1, §2

[7] = test system: cutaneous temperature of the paw; assay: Vasodilating action in the mouse (cutaneous temperature of the paw); type: in vivo, Swiss male whitish mice; details: for mean variation of the cutaneous temperature in the 3h following the treatment: in °C (unit assumed)
Method: Swiss male whitish mice weighing about 20 g have been used. The cutaneous temperature of the paw has been measured, in conditioned room by means of a suitable thermometric equipment, (a) for three times, at 30 minutes intervals, before treatment (basal temperature), and (b) every 30 minutes in the three hours following the drugs treatment.

[8] = Pharmacokinetics in the rat by the oral route; details: equimolar doses, compared with VQG 582
[9] = ip, intraperitoneal route, female
[10] = ip, intraperitoneal route, male

SMILES	% dead animals [2] [%]	serum cholesterol [2] [mg/100 ml]	serum free fatty acids [2] [mg/100 ml]	serum phospholipids [2] [mg/100 ml]	inhibition % ([1]; 40 mg/kg os) [%]	inhibition % ([1]; 80 mg/kg os) [%]	inhibition % ([1]; 120 mg/kg os) [%]	N. platelets ± S.E. [3]	% inhibition [3] [%]	LD50 at 192 h [4, 9] [mg/kg]	LD50 at 192 h [4, 10] [mg/kg]	LD50 at 192 h ([4]; po, female) [mg/kg]	LD50 at 192 h ([4]; po, male) [mg/kg]	LD50 at 192 h [6, 9] [mg/kg]	LD50 at 192 h [6, 10] [mg/kg]	LD50 at 192 h ([6]; po, female) [mg/kg]	LD50 at 192 h ([6]; po, male) [mg/kg]	mean variation of the cutaneous temperature in the 3h following the treatment ([7]; 100 mg/kg os)	other results
CC(=O)Oc1ccccc1C(=O)O [ASA, acetylsalicylic acid]																			inhibition % ([1]; 50 mg/kg os): 30%; inhibition % ([1]; 75 mg/kg os): 70%; inhibition % ([1]; 100 mg/kg os): 100%
O=C(OCC1(CC[S+]([O-])c2ccccc2)C(=O)N(c2ccccc2)N(c2ccccc2)C1=O)c1cccnc1 (centres unmarked) [VQG 582, 1,2-diphenyl-4-[2-(phenylsulfinyl)-ethyl]-4-(nicotinoyloxymethyl)-pyrazolidine-3,5-dione]	10	294.1	0.31	157.1	15	70	85	218.5 10^3 /mm^3	70.2	2320	2690	> 4000	> 4000	3250	3130	> 4000	> 4000	+0.60	serum triglycerides [2]: 113.8 mg/100 ml; liver lipids % ([2]; % of fresh organ): 16.0%; pharmacological action after oral administration [5]: pharmacological action clearly delayed; blood concentrations expressed as sulfinpyrazone ([5]; po): prolongation of the blood concentrations expressed as sulfinpyrazone; metabolism ([5]; po): metabolized via an intermediate step, respectively to nicotinic acid and sulfinpyrazone; presence of unchanged compound in the plasma ([5]; po): found unchanged in the plasma 30 minutes to 1 hour after the treatment; max. effect time ([7]; 100 mg/kg os): 60 min
O=C(O)c1cccnc1 [nicotinic acid]	10	324.3	0.39	161.7															AUC ([5]; po): AUC superimposable to VQG 582; absorption [8]: faster absorption; max. effect time ([7]; 50 mg/kg os): 30 min; mean variation of the cutaneous temperature in the 3h following the treatment ([7]; 50 mg/kg os): +0.75
O=C1C(CC[S+]([O-])c2ccccc2)C(=O)N(c2ccccc2)N1c1ccccc1 (centres unmarked) [sulfinpyrazone, 1,2-diphenyl-4-[2-(phenylsulfinyl)ethyl]-pyrazoline-3,5-dione]					5	30	70	204.3 10^3 /mm^3	63.1	157	149	390	348	159	163	335	368	+0.05	
